This is an account of results in patent US6649623B1, “Cyclic amine derivatives and use thereof” (Shionogi & Co., Ltd., priority 1999, dated 2003).

Where two headings read alike, the source gives them in different places.

For test [1], the system named is KK-Ay mouse. The test can be described thus: 7-day subcutaneous administration to KK-Ay mouse: body weight, food intake, blood glucose and insulin. In kind it is in vivo. Particulars: 80 mg/kg s.c. for 7 days; for response vs control in vivo at 80 mg/kg: sc, 192 h, male KK-Ay mouse, average; for food intake (in words): KK-Ay mouse. As to the method: After 80 mg/kg of the present compound was administered subcutaneously for 7 days to 7-8 week aged male KK-Ay mouse (n=5˜7, CLEA JAPAN, INC), the amount of food intake from seventh day to eighth day, and body weight of eighth day were measured. For a control group, physiological saline was used. After the body weight was measured, the blood was collected from abdominal aorta by a syringe containing 50 U heparin and centrifuged 12,000×g for five min. Glucose in blood was measured by New Blood.Sugar.Test (Boehringer Ingelheim) and insulin was measured by Insulin-EIA Test (GLAOZYME). Each value is an average value and represented by percent to each value of eighth days in the control group. As to the compounds of and after Example 13, each corresponding hydrochloride was used.

Test [2] concerns KK-Ay mouse. The test can be described thus: Plasma leptin concentration in KK-Ay mouse (mouse leptin RIA kit). In kind it is in vivo. Particulars: 40 mg/kg s.c., after 24 hours, saline group 26.7±1.9 ng/ml. As to the method: The compound 3cs of Example 3 (40 mg/kg ) was administered subcutaneously to KK-Ay mouse. After 24 hours, the concentration of leptin in plasma was measured by using mouse leptin RIA measuring kit (Linco). The blood was collected from abdominal aorta by a syringe containing 50 U heparin and centrifuged 12,000×g for 5 min to give plasma.

The mark [3] stands for this setting: body weight of eighth day, percent to value of control group (physiological saline), read-out: Body weight.
Setting [4] is: food intake from seventh to eighth day, percent to value of control group, read-out: Food intake.
The mark [5] stands for this setting: glucose in blood on eighth day, percent to value of control group, read-out: Glucose.
Where [6] appears, read: insulin in blood on eighth day, percent to value of control group, read-out: Insulin.

Consider `Clc1ccc(COCCCN2CC=CCC2)cc1Cl` [Example 8, 1-[3-(3,4-Dichloro-benzyloxy)-propyl]-1,2,3,6-tetrahydro-pyridine], for which the response vs control in vivo at 80 mg/kg amounted to 94% in the test with KK-Ay mouse [1] (setting [3]), 96% in the test with KK-Ay mouse [1] (setting [4]), 78% in the test on KK-Ay mouse [1] (setting [5]) and 31% in the test with KK-Ay mouse [1] (setting [6]).
On to `Clc1ccc(OCCCN2CC=CCC2)cc1Cl` [Example 3, 1-[3-(3,4-Dichloro-phenoxy)-propyl]-1,2,3,6-tetrahydro-pyridine], for which the “concentration of leptin in plasma” value with KK-Ay mouse [2] turned out to be 44.8 ± 5.2 ng/mL. Moreover, in the test on KK-Ay mouse [1], the “food intake (in words)” value is listed as “little repressed”. The response vs control in vivo at 80 mg/kg was 84% with KK-Ay mouse [1] (setting [3]), 82% in the test on KK-Ay mouse [1] (setting [4]), 73% in the test on KK-Ay mouse [1] (setting [5]) and 49% with KK-Ay mouse [1] (setting [6]).
In the case of `Fc1cc(F)c(OCCCN2CC=CCC2)c(F)c1` [Example 46], the response vs control in vivo at 80 mg/kg in the test on KK-Ay mouse [1] (setting [3]) was determined as 90%; with KK-Ay mouse [1] (setting [4]), 91%; in the test with KK-Ay mouse [1] (setting [5]) it was 58%; in the test with KK-Ay mouse [1] (setting [6]) it was 53%.
The like results for `Clc1ccc(OCCN2CC=CCC2)cc1Cl` [Example 9, 1-[2-(3,4-Dichloro-phenoxy)-ethyl]-1,2,3,6-tetrahydro-pyridine] were, in that order, 87%, 83%, 71% and 53%.
Regarding `Clc1ccc(OCCCCN2CC=CCC2)cc1Cl` [Example 10, 1-[4-(3,4-Dichloro-phenoxy)-butyl]-1,2,3,6-tetrahydro-pyridine], the response vs control in vivo at 80 mg/kg in the test on KK-Ay mouse [1] (setting [3]) was determined as 94%; in the test with KK-Ay mouse [1] (setting [4]), 82%; with KK-Ay mouse [1] (setting [5]), 87%; in the test with KK-Ay mouse [1] (setting [6]), 31%.
On the same counts, the results for `Cc1cc(OCCCN2CC=CCC2)ccc1F` [Example 23] are 89%, 76%, 67% and 91%.
For the compound `Brc1ccc(OCCCN2CC=CCC2)c(Br)c1` [Example 2, 1-[3-(2,4-Dibromo-phenoxy)-propyl]-1,2,3,6-tetrahydro-pyridine], the “food intake (in words)” value in the test with KK-Ay mouse [1] is recorded as “little repressed”. The response vs control in vivo at 80 mg/kg with KK-Ay mouse [1] (setting [3]) was determined as 93%; in the test with KK-Ay mouse [1] (setting [4]) it was 100%; in the test with KK-Ay mouse [1] (setting [5]), 79%; with KK-Ay mouse [1] (setting [6]) it was 41%.
Take `CC(C)(C)c1cccc(OCCCN2CC=CCC2)c1` [Example 49]: the response vs control in vivo at 80 mg/kg with KK-Ay mouse [1] (setting [3]) stood at 91%; in the test on KK-Ay mouse [1] (setting [4]) it was 80%; in the test on KK-Ay mouse [1] (setting [5]), 56%; in the test on KK-Ay mouse [1] (setting [6]) it was 73%.
The like results for `FC(F)(F)c1ccc(COc2ccc(OCCCN3CC=CCC3)cc2Cl)cc1` [Example 33] were, in that order, 93%, 72%, 54% and 44%.
`FC(F)(F)c1cccc(OCCCN2CC=CCC2)c1` [Example 39]: the response vs control in vivo at 80 mg/kg in the test on KK-Ay mouse [1] (setting [3]) was determined as 95%; in the test with KK-Ay mouse [1] (setting [4]) it was 78%; with KK-Ay mouse [1] (setting [5]) it was 70%; with KK-Ay mouse [1] (setting [6]), 52%.
On the same counts, the results for `C1=CCN(CCCOc2ccc3sccc3c2)CC1` [Example 17] are 94%, 84%, 99% and 84%.
On the same counts, the results for `COc1cccc(OCCCN2CC=CCC2)c1` [Example 5, 1-[3-(3-Methoxy-phenoxy)-propyl]-1,2,3,6-tetrahydro-pyridine] are 94%, 88%, 62% and 38%.
Consider `Cc1ccc(OCCCN2CC=CCC2)cc1C` [Example 27], for which the response vs control in vivo at 80 mg/kg in the test with KK-Ay mouse [1] (setting [3]) was determined as 93%; in the test with KK-Ay mouse [1] (setting [4]), 77%; with KK-Ay mouse [1] (setting [5]) it was 87%; with KK-Ay mouse [1] (setting [6]), 42%.
The like results for `Clc1ccc(OCCCN2CC=CCC2)c(Cl)c1Cl` [Example 7, 1-[3-(2,3,4-Trichloro-phenoxy)-propyl]-1,2,3,6-tetrahydro-pyridine] were, in that order, 83%, 78%, 72% and 51%.
On the same counts, the results for `Brc1ccc(-c2ccc(OCCCN3CC=CCC3)cc2)cc1` [Example 30] are 95%, 73%, 62% and 50%.
The like results for `Clc1ccc(NCCCN2CC=CCC2)cc1Cl` [Example 11, (3,4-Dichlorophenyl)-[3-(3,6-dihydro-2-H-pyridin-1-yl)propyl]-amine] were, in that order, 94%, 92%, 93% and 74%.
In the case of `Cc1ccc(F)c(OCCCN2CC=CCC2)c1` [Example 45], the response vs control in vivo at 80 mg/kg in the test on KK-Ay mouse [1] (setting [3]) came to 94%; with KK-Ay mouse [1] (setting [4]) it was 82%; with KK-Ay mouse [1] (setting [5]), 79%; in the test with KK-Ay mouse [1] (setting [6]), 70%.
On the same counts, the results for `Fc1ccc(OCCCN2CC=CCC2)c(F)c1` [Example 1, 1-[3-(2,4-Difluoro-phenoxy)-propyl]-1,2,3,6-tetrahydro-pyridine] are 85%, 76%, 56% and 12%.
The like results for `FC(F)(F)c1cc(OCCCN2CC=CCC2)cc(C(F)(F)F)c1` [Example 41] were, in that order, 88%, 77%, 56% and 48%.
With `Fc1cccc(F)c1OCCCN1CC=CCC1` [Example 36], the response vs control in vivo at 80 mg/kg in the test with KK-Ay mouse [1] (setting [3]) was found to be 86%; in the test with KK-Ay mouse [1] (setting [4]), 75%; with KK-Ay mouse [1] (setting [5]) it was 61%; with KK-Ay mouse [1] (setting [6]), 54%.
On the same counts, the results for `Clc1cccc(OCCCN2CC=CCC2)c1` [Example 4, 1-[3-(3-Chlorophenoxy)-propyl]-1,2,3,6-tetrahydro-pyridine] are 87%, 79%, 84% and 47%.
On the same counts, the results for `Cc1ccc(OCCCN2CC=CCC2)c(Cl)c1` [Example 25] are 90%, 73%, 58% and 63%.
The like results for `FC(F)(F)c1ccc(Oc2ccc(OCCCN3CC=CCC3)cc2)cc1` [Example 44] were, in that order, 82%, 59%, 54% and 21%.
On to `Clc1ccc(OCCCN2CC=CCC2)c(Cl)c1` [Example 6, 1-[3-(2,4-Dichloro-phenoxy)-propyl]-1,2,3,6-tetrahydro-pyridine], for which, in the test with KK-Ay mouse [1], the “food intake (in words)” value is recorded as “little repressed”. In addition, the response vs control in vivo at 80 mg/kg in the test with KK-Ay mouse [1] (setting [3]) is 85%; in the test with KK-Ay mouse [1] (setting [4]), 84%; with KK-Ay mouse [1] (setting [5]) it was 76%; in the test on KK-Ay mouse [1] (setting [6]) it was 32%.
With `Fc1ccc(OCCCN2CC=CCC2)cc1F` [Example 32], the response vs control in vivo at 80 mg/kg in the test on KK-Ay mouse [1] (setting [3]) was 92%; in the test with KK-Ay mouse [1] (setting [4]), 85%; in the test on KK-Ay mouse [1] (setting [5]), 73%; in the test on KK-Ay mouse [1] (setting [6]), 69%.
The like results for `Clc1cc(Cl)cc(OCCCN2CC=CCC2)c1` [Example 21] were, in that order, 89%, 74%, 80% and 53%.
